Results taken from paper PMC12176259, “Bacterial transcriptional repressor NrdR – a flexible multifactorial nucleotide sensor” (The Febs Journal, 2025).

Experiments:
E. coli NrdR (EcoNrdR) [1] = target: T1, E. coli NrdR (EcoNrdR) (Escherichia coli, UniProt P0A8D0); assay: ITC, one set of sites; type: binding
T1 construct: full-length wild type, C-terminal His6 tag (pET30a(+)), E. coli BL21(DE3); tag not reported removed; co-purified nucleotides stripped for ITC (apo-NrdR); apo dimer, tetramer with ATP-dATP or ADP-dATP; SeMet version for 9FVR
T1 sequence (P0A8D0 whole entry): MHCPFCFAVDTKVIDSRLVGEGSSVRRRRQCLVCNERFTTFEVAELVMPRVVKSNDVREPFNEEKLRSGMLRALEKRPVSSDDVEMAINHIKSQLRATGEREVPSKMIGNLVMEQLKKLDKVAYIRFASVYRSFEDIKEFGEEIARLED
Text: ITC, one set of sites on E. coli NrdR (EcoNrdR)

E. coli NrdR (EcoNrdR) [2] = target: T1, E. coli NrdR (EcoNrdR); assay: X-ray crystal structure, […] Å; type: binding; conditions: with dATP and Mg2+; inner site

Kd (E. coli NrdR (EcoNrdR) [1]) [nM] | Compound | X-ray crystal structure, 2.33 Å (E. coli NrdR (EcoNrdR) [2])
343 ± 19 | Nc1ncnc2c1ncn2[C@@H]1O[C@H](COP(=O)(O)OP(=O)(O)O)[C@@H](O)[C@H]1O [ADP] | 
 | Nc1ncnc2c1ncn2[C@@H]1O[C@H](COP(=O)(O)OP(=O)(O)NP(=O)(O)O)[C@@H](O)[C@H]1O [AMPPNP] | In complex with dATP and AMPPNP, EcoNrdR is a tetramer
610 ± 231 | Nc1ncnc2c1ncn2[C@H]1C[C@H](O)[C@@H](COP(=O)(O)OP(=O)(O)OP(=O)(O)O)O1 [dATP] | 
346 ± 93 | Nc1ncnc2c1ncn2[C@@H]1O[C@H](COP(=O)(O)OP(=O)(O)OP(=O)(O)O)[C@@H](O)[C@H]1O [ATP] | 
